Laboratory results from patent EP0973790B1, “ESTRA-5(10),7-DIENES WITH ESTROGENIC ACTIVITY” (Wyeth, priority 1997, dated 1998).

Columns and labels:
Immature rats = assay: In vivo uterotropic activity; details: for Uterine Weight (mg) ± SD: n=6/group
[1] = biological target: human estrogen receptor (hER-α) (Homo sapiens, UniProt P03372); assay: Estrogen receptor binding, whole cell test procedure; details: comparison values for known estrogens
Chain of human estrogen receptor (hER-α) (P03372 whole entry): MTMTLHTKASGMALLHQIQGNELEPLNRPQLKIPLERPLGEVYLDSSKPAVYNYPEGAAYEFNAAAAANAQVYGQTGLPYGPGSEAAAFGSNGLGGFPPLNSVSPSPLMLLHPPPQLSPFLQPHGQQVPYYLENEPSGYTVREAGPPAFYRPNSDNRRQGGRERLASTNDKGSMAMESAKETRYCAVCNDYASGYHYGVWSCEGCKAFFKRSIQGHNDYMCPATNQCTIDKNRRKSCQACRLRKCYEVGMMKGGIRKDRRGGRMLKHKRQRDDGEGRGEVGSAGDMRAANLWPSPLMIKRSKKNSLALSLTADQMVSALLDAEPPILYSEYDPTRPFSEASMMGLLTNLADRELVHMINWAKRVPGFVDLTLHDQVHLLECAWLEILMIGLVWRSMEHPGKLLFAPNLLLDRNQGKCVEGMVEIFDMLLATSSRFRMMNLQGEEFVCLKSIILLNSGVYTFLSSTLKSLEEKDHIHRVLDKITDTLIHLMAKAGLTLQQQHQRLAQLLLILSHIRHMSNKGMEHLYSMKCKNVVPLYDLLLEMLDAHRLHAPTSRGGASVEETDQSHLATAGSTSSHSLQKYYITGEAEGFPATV

CC12CCC3C(=CCC4=C3CCC(O)C4)C1CCC2=O (stereo not drawn) [5A, estra-5(10),7-dien-3α-ol-17-one]
Uterine Weight (mg) ± SD (Immature rats; 1 µg, three days S.C.): 28.7 ± 2.7 mg
Uterine Weight (mg) ± SD (Immature rats; 10 µg, three days S.C.): 33.3 ± 4.4 mg
Uterine Weight (mg) ± SD (Immature rats; 100 µg, three days S.C.): 66.5 ± 4.7 mg
Uterine Weight (mg) ± SD (Immature rats; 500 µg, three days S.C.): 78.9 ± 13.6 mg
estimated EC50 (Immature rats; uterine stimulation, in words relative to 5B): somewhat lower

CC12CCC3C(=CCC4=C3CCC(O)C4)C1CCC2=O (stereo not drawn) [5B, estra-5(10),7-dien-3β-ol-17-one]
Uterine Weight (mg) ± SD (Immature rats; 0.1 µg, three days S.C.): 34.1 ± 6.2 mg
Uterine Weight (mg) ± SD (Immature rats; 1 µg, three days S.C.): 31.7 ± 6.6 mg
Uterine Weight (mg) ± SD (Immature rats; 10 µg, three days S.C.): 43.5 ± 6.9 mg
Uterine Weight (mg) ± SD (Immature rats; 100 µg, three days S.C.): 79.7 ± 5.8 mg
Uterine Weight (mg) ± SD (Immature rats; 500 µg, three days S.C.): 82.6 ± 8.6 mg

C#C[C@]1(O)CC[C@H]2[C@@H]3CCc4cc(O)ccc4[C@H]3CC[C@@]21C [Ethinyl Estradiol, reference compound]
Uterine Weight (mg) ± SD (Immature rats; 0.5 µg, three days): 101.2 ± 2.8 mg

C[C@]12CCc3c(ccc4cc(O)ccc34)[C@@H]1CCC2=O [equilenen]
Ki [1]: 375 nM

C[C@]12CC[C@@H]3c4ccc(O)cc4CC[C@H]3[C@@H]1CCC2=O [estrone, reference compound]
EC50 (Immature rats; estimated in similar test procedures): 0.2 mg/kg
